Experimental data: patent US20240327372A1, “PREPARATION OF PHENE[…] […] STEREOISOMERS THEREOF AND PRECURSORS THEREOF” (priority 2022, published 2024)
Read-outs that look alike come from different tables or passages of the source.

Legend:
[1] = Pharmacokinetics of methylone after single IV, PO or IP administration, plasma LC-MS/MS; type: in vivo, male Sprague Dawley rats; details: for MRT last: read-out: MRT0-last; for Cmax: rat plasma
Experimental: The pharmacokinetic properties of methylone after a single administration intravenously (IV), intraperitoneally (IP), or by oral gavage (PO) in male Sprague Dawley rats has been determined using a liquid chromatography tandem mass spectrometry (LC-MS/MS) method that has been established and validated for methylone in the rat. Rats (n=3 per group) received a single dose of methylone: 5 mg/kg IV, 15 mg/kg IP, or 15 mg/kg PO.
To investigate whether the prodrug extends the half-life or alters other basic pharmacokinetic properties of methylone (e.g., Cmax or Tmax), rats are treated with each prodrug IV, IP, or PO. For each compound, three groups of rats are treated as follows: For group 1, a single dose of methylone is administered to 3 male Sprague-Dawley rats by IV bolus at 5 mg/kg. For group 2, a single dose of methylone is administered to 3 male Sprague-Dawley rats by oral gavage (PO) at 15 mg/kg. For group 3, a single dose of methylone is administered to 3 male Sprague-Dawley rats by IP at 15 mg/kg. For all groups, blood samples are collected from each animal at 0.083, 0.25, 0.5, 1, 2, 4, 8, 12, and 24 hours post-dose for the determination of plasma concentrations. The plasma concentrations are quantified by liquid chromatography tandem mass spectrometry (LC-MS/MS). The bioanalytical assay has been established and validated, providing a lower limit of quantification (LLOQ) of 1 ng/mL and an upper limit of quantification (ULOQ) of 3000 ng/mL for methylone. The plasma concentration-time data are analyzed using Phoenix WinNonlin (version 8.3) to characterize the PK properties of the analyte. The non-compartmental analysis model and the linear/log trapezoidal method are applied to calculating the PK parameters.

[2] = system: mouse model of PTSD; assay: Fear extinction in a mouse model of PTSD; type: in vivo; details: 30 mg/kg IP
Experimental: FIGS. 1A-1D: Methylone improves fear extinction recall in a mouse model of PTSD. (FIG. 1A) Schematic of experimental design. A single CS-US (tone-shock) pairing on day 1 was followed by 6 CS presentations in a novel context (context B). Methylone or saline vehicle was injected 30 min prior to extinction training on day 2. On day 3, the time spent freezing to the CS was quantified. […] (FIG. 1C) The time freezing before vs. during each of 6 cues on day 3 (to control for locomotor effects) are shown. There was a significant cue x drug interaction (F(5, 130)=2.409, p<0.05). […] N=12 for methylone group (30 mg/kg, IP, orange diamonds) and N=16 for saline control group (black squares). *p<0.05
Effective PTSD treatments facilitate the disassociation between a traumatic memory and the patient's fear response, making cues for the traumatic memory evoke less of a fear response. This is modeled in the mouse fear extinction paradigm which takes place over 3 days. On day 1 (fear conditioning), mice are trained to acquire a “traumatic memory,” namely associating the conditioned stimulus (CS, tone) to the unconditioned stimulus (US, foot shock). […] On day 3 (extinction recall), the mice are “asked” if that tone (CS) still elicits a fearful response, as measured by the time spent freezing when the tone is presented. […]

[3] = system: rat forced swim test (FST); assay: Rat forced swim test (FST); type: in vivo
Experimental: All FST studies are performed and scored by an experimenter blind to treatment group and according to standard protocols. Briefly, rats are placed in a circular plexiglass container filled with water. Water temperature is maintained at 22-25° C. and changed for every animal. Day 1 (Training) consists of a 15 min acclimation trial, and Day 2 (Testing, 24 h later) consists of the 5 min test. A time sampling procedure is employed where animals are observed every 5 seconds for the duration of the test session (60 counts or 5 minutes) and scored for immobility (defined as the failure to struggle), swimming (defined as a circular movement around the tank), or climbing (defined as an upwards escape behavior). Data are expressed as the percent of the testing session (e.g., the number of immobility counts divided by 60). A p-value less than 0.05 indicates statistical significance after typical statistical analyses (e.g., unpaired t-test or ANOVA).
To determine that the prodrug and/or enantiomer has an antidepressant-like effect and to compare it to methylone, rats are treated with each compound 30 min prior to testing. Additional tests are run 24, 72, 168 hours post-dose or longer.
Racemic methylone (10 mg/kg, IP) has a maximal antidepressant-like effect in the rat forced swim test (FST), reducing immobility by nearly 100% compared to vehicle treated controls. To determine whether one enantiomer of methylone could mimic the robust antidepressant-like effect of racemic methylone, rats were treated with a single dose of racemic methylone, (R)-methylone, (S)-methylone (all 10 mg/kg, IP) or vehicle 30 min before testing in the FST. […] Therefore, all of the activity of methylone appears to be driven by the activity of one enantiomer ((S)-methylone).

[4] = rat; Elmore et al. 2017; cited from earlier work
[5] = system: PTSD; details: clinical case series of 21 individuals; cited from earlier work
[6] = system: open field test; details: 5, 10, 20 mg/kg, SC; Štefková et al. 2017; cited from earlier work
[7] = self-administration, healthy volunteers; cited from earlier work
[8] = male, Sprague Dawley, rat, plasma, IP 15 mg/kg
[9] = male, Sprague Dawley, rat, plasma, IV 5 mg/kg
[10] = male, Sprague Dawley, rat, plasma, PO 15 mg/kg

CNC(C)C(=O)c1ccc2c(c1)OCO2 (stereo not shown) [Methylone, 3,4-methylenedioxy-N-methylacthinone]
Tmax ([1]; IP 15 mg/kg): 0.250 ± 0.000 h | AUC(0-t) [1, 8]: 4300 ± 1180 ng·h/mL | half-life [1, 8]: 0.8 ± 0.169 h | MRT last [1, 8]: 1.07 ± 0.211 h | AUC(0-t) [1, 9]: 1200 ± 88.2 ng·h/mL | C0 [1, 9]: 3020 ± 666 ng/mL | clearance [1, 9]: 68.3 ± 5.4 mL/min/kg | half-life [1, 9]: 0.362 ± 0.024 h | MRT last [1, 9]: 0.439 ± 0.026 h | Vd ([1]; male, Sprague Dawley, rat, plasma, IV 5 mg/kg, read-out: Vdss): 1.98 ± 0.23 L/kg | AUC(0-t) [1, 10]: 2760 ± 657 ng·h/mL | half-life [1, 10]: 3.23 ± 1.99 h | MRT last [1, 10]: 2.99 ± 0.467 h | Tmax ([1]; male, Sprague Dawley, rat, plasma, PO 15 mg/kg, read-out: Tmax): 1.33 ± 0.577 h | Cmax ([1]; male, Sprague Dawley, IP 15 mg/kg): 4230 ± 514 ng/mL | Cmax ([1]; male, Sprague Dawley, PO 15 mg/kg): 678 ± 243 ng/mL | Enhancement of fear extinction recall compared to saline controls ([2]; 30 min prior to extinction training): ~60% | Freezing time during the first cue on day 3 (extinction recall) compared to saline ([2]; p<0.05): significantly reduced | Reduction of immobility compared to vehicle-treated controls ([3]; single dose 5 mg/kg): approximately 50% | Reduction of immobility compared to vehicle-treated controls ([3]; single dose 15 mg/kg): ~100% | t1/2 [4]: 1 h | Patients with improved PTSD symptoms [5]: 81% | Thigmotaxis (time spent hugging the perimeter of the open field) [6]: reduce thigmotaxis | Heart rate [7]: increase in heart rate | Systolic and diastolic blood pressure [7]: significant increase
